Values quoted from earlier work in patent US20050182030A1, “Liquid injectable formulation of disodium pamidronate” (American Pharmaceutical Partners, Inc., priority 2001, published 2005).

Tests used:
[1] = in vivo
[2] = liquid formulation
[3] = approximately normal ambient conditions

NCCC(O)(P(=O)([O-])O)P(=O)([O-])O.[Na+].[Na+] [pamidronate, 3-amino-1-hydroxypropane-1,1-diphosphonate disodium]
Absorption from the gastrointestinal system [1]: poor absorption
Stability during long-term storage [2]: unstable/reactive

NCCC(O)(P(=O)(O)O)P(=O)(O)O [pamidronic acid]
Solubility in water: not soluble in water

NCCC(O)(P(=O)([O-])O)P(=O)([O-])O.O.O.O.O.O.[Na+].[Na+] [pentahydrate, pamidronate disodium pentahydrate]
Stability to storage [3]: stable to storage
